According to PubChem BioAssay (NCI):
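Exposure lasted 48 hours, with cells grown in 96-well plates and compounds tested at five concentrations. Here, GI50 denotes the concentration required for 50% inhibition of growth. TGI: total growth inhibition.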

Experiments:
Assay in all cases: DTP human tumour cell line panel, 48 h
786-0 renal = system: 786-0 renal
A498 renal = system: A498 renal
A549 NSCLC = system: A549 NSCLC
ACHN renal = system: ACHN renal
BT-549 breast = system: BT-549 breast
CAKI-1 renal = system: CAKI-1 renal
CCRF-CEM leukemia = system: CCRF-CEM leukemia
COLO 205 colon = system: COLO 205 colon
DU-145 prostate = system: DU-145 prostate
EKVX NSCLC = system: EKVX NSCLC
HCC-2998 colon = system: HCC-2998 colon
HCT-116 colon = system: HCT-116 colon
HCT-15 colon = system: HCT-15 colon
HL-60(TB) leukemia = system: HL-60(TB) leukemia
HOP-62 NSCLC = system: HOP-62 NSCLC
HOP-92 NSCLC = system: HOP-92 NSCLC
HS 578T breast = system: HS 578T breast
HT29 colon = system: HT29 colon
IGROV1 ovarian = system: IGROV1 ovarian
K-562 leukemia = system: K-562 leukemia
KM12 colon = system: KM12 colon
LOX IMVI melanoma = system: LOX IMVI melanoma
M14 melanoma = system: M14 melanoma
MALME-3M melanoma = system: MALME-3M melanoma
MCF7 breast = system: MCF7 breast
MDA-MB-231 breast = system: MDA-MB-231 breast
MDA-MB-435 = system: MDA-MB-435
MDA-MB-468 breast = system: MDA-MB-468 breast
MOLT-4 leukemia = system: MOLT-4 leukemia
NCI-H226 lung = system: NCI-H226 lung
NCI-H23 lung = system: NCI-H23 lung
NCI-H460 lung = system: NCI-H460 lung
NCI-H522 lung = system: NCI-H522 lung
NCI/ADR-RES ovarian = system: NCI/ADR-RES ovarian
OVCAR-3 ovarian = system: OVCAR-3 ovarian
OVCAR-4 ovarian = system: OVCAR-4 ovarian
OVCAR-5 ovarian = system: OVCAR-5 ovarian
OVCAR-8 ovarian = system: OVCAR-8 ovarian
PC-3 prostate = system: PC-3 prostate
RPMI-8226 leukemia = system: RPMI-8226 leukemia
RXF 393 renal = system: RXF 393 renal
SF-268 CNS = system: SF-268 CNS
SF-295 CNS = system: SF-295 CNS
SF-539 CNS = system: SF-539 CNS
SK-MEL-2 melanoma = system: SK-MEL-2 melanoma
SK-MEL-28 melanoma = system: SK-MEL-28 melanoma
SK-MEL-5 melanoma = system: SK-MEL-5 melanoma
SK-OV-3 ovarian = system: SK-OV-3 ovarian
SN12C renal = system: SN12C renal
SNB-19 CNS = system: SNB-19 CNS
SR leukemia = system: SR leukemia
SW-620 colon = system: SW-620 colon
T-47D breast = system: T-47D breast
TK-10 renal = system: TK-10 renal
U251 CNS = system: U251 CNS
UACC-257 melanoma = system: UACC-257 melanoma
UACC-62 melanoma = system: UACC-62 melanoma
UO-31 renal = system: UO-31 renal

SMILES: COc1ccc2[nH]cc(-c3nc(N)nnc3-c3cn(C)c4ncc(Br)cc34)c2c1
- GI50 (786-0 renal): 545 nM
- TGI (786-0 renal): 22200 nM
- GI50 (A498 renal): 12600 nM
- TGI (A498 renal): 48100 nM
- GI50 (A549 NSCLC): 769 nM
- TGI (A549 NSCLC): > 95300 nM
- GI50 (ACHN renal): 642 nM
- TGI (ACHN renal): 30500 nM
- GI50 (BT-549 breast): 469 nM
- TGI (BT-549 breast): 7260 nM
- GI50 (CAKI-1 renal): 342 nM
- TGI (CAKI-1 renal): > 50800 nM
- GI50 (CCRF-CEM leukemia): 379 nM
- TGI (CCRF-CEM leukemia): > 84300 nM
- GI50 (COLO 205 colon): 305 nM
- TGI (COLO 205 colon): 1180 nM
- GI50 (DU-145 prostate): 446 nM
- TGI (DU-145 prostate): > 49700 nM
- GI50 (EKVX NSCLC): 864 nM
- TGI (EKVX NSCLC): > 72800 nM
- GI50 (HCC-2998 colon): 910 nM
- TGI (HCC-2998 colon): 12900 nM
- GI50 (HCT-116 colon): 373 nM
- TGI (HCT-116 colon): 13800 nM
- GI50 (HCT-15 colon): 354 nM
- TGI (HCT-15 colon): 21400 nM
- GI50 (HL-60(TB) leukemia): 168 nM
- TGI (HL-60(TB) leukemia): 3910 nM
- GI50 (HOP-62 NSCLC): 547 nM
- TGI (HOP-62 NSCLC): > 76900 nM
- GI50 (HOP-92 NSCLC): 572 nM
- TGI (HOP-92 NSCLC): 14300 nM
- GI50 (HS 578T breast): 319 nM
- TGI (HS 578T breast): > 78300 nM
- GI50 (HT29 colon): 317 nM
- TGI (HT29 colon): 2550 nM
- GI50 (IGROV1 ovarian): 923 nM
- TGI (IGROV1 ovarian): 25000 nM
- GI50 (K-562 leukemia): 85 nM
- TGI (K-562 leukemia): > 100000 nM
- GI50 (KM12 colon): 241 nM
- TGI (KM12 colon): 17500 nM
- GI50 (LOX IMVI melanoma): 484 nM
- TGI (LOX IMVI melanoma): 20100 nM
- GI50 (M14 melanoma): 292 nM
- TGI (M14 melanoma): 30300 nM
- GI50 (MALME-3M melanoma): 335 nM
- TGI (MALME-3M melanoma): 23000 nM
- GI50 (MCF7 breast): 75.6 nM
- TGI (MCF7 breast): 25300 nM
- GI50 (MDA-MB-231 breast): 882 nM
- TGI (MDA-MB-231 breast): 48600 nM
- GI50 (MDA-MB-435): 37.9 nM
- TGI (MDA-MB-435): 205 nM
- GI50 (MDA-MB-468 breast): 30.1 nM
- TGI (MDA-MB-468 breast): 631 nM
- GI50 (MOLT-4 leukemia): 524 nM
- TGI (MOLT-4 leukemia): > 76700 nM
- GI50 (NCI-H226 lung): 676 nM
- TGI (NCI-H226 lung): 9150 nM
- GI50 (NCI-H23 lung): 461 nM
- TGI (NCI-H23 lung): 21700 nM
- GI50 (NCI-H460 lung): 382 nM
- TGI (NCI-H460 lung): 18000 nM
- GI50 (NCI-H522 lung): 26.6 nM
- TGI (NCI-H522 lung): 120 nM
- GI50 (NCI/ADR-RES ovarian): 1450 nM
- TGI (NCI/ADR-RES ovarian): 11200 nM
- GI50 (OVCAR-3 ovarian): 250 nM
- TGI (OVCAR-3 ovarian): 2660 nM
- GI50 (OVCAR-4 ovarian): 1440 nM
- TGI (OVCAR-4 ovarian): > 95500 nM
- GI50 (OVCAR-5 ovarian): 568 nM
- TGI (OVCAR-5 ovarian): > 100000 nM
- GI50 (OVCAR-8 ovarian): 851 nM
- TGI (OVCAR-8 ovarian): 22900 nM
- GI50 (PC-3 prostate): 311 nM
- TGI (PC-3 prostate): > 60100 nM
- GI50 (RPMI-8226 leukemia): 430 nM
- TGI (RPMI-8226 leukemia): > 40800 nM
- GI50 (RXF 393 renal): 244 nM
- TGI (RXF 393 renal): 3890 nM
- GI50 (SF-268 CNS): 1580 nM
- TGI (SF-268 CNS): 29600 nM
- GI50 (SF-295 CNS): 230 nM
- TGI (SF-295 CNS): 10300 nM
- GI50 (SF-539 CNS): 255 nM
- TGI (SF-539 CNS): 844 nM
- GI50 (SK-MEL-2 melanoma): 335 nM
- TGI (SK-MEL-2 melanoma): 15400 nM
- GI50 (SK-MEL-28 melanoma): 966 nM
- TGI (SK-MEL-28 melanoma): 34400 nM
- GI50 (SK-MEL-5 melanoma): 233 nM
- TGI (SK-MEL-5 melanoma): 4050 nM
- GI50 (SK-OV-3 ovarian): 482 nM
- TGI (SK-OV-3 ovarian): 48100 nM
- GI50 (SN12C renal): 494 nM
- TGI (SN12C renal): 26400 nM
- GI50 (SNB-19 CNS): 738 nM
- TGI (SNB-19 CNS): > 100000 nM
- GI50 (SR leukemia): 69.3 nM
- TGI (SR leukemia): > 100000 nM
- GI50 (SW-620 colon): 304 nM
- TGI (SW-620 colon): > 62400 nM
- GI50 (T-47D breast): 192 nM
- TGI (T-47D breast): 97200 nM
- GI50 (TK-10 renal): 13100 nM
- TGI (TK-10 renal): 42400 nM
- GI50 (U251 CNS): 491 nM
- TGI (U251 CNS): 38600 nM
- GI50 (UACC-257 melanoma): 724 nM
- TGI (UACC-257 melanoma): 27800 nM
- GI50 (UACC-62 melanoma): 184 nM
- TGI (UACC-62 melanoma): 13300 nM
- GI50 (UO-31 renal): 717 nM
- TGI (UO-31 renal): 20300 nM
